Experimental data: publication PMC8541546, “Identification of HLA-A2-Restricted Mutant Epitopes from Neoantigens of Esophageal Squamous Cell Carcinoma” (Vaccines, 2021)

Legend:
[1] = molecular target: T1, HLA-A*0201 molecule (Homo sapiens, UniProt P04439, D140Y/D185E/D98H/E176V/E277Q/G131W/G231S/I119V/I121R/I166T/I218V/L300P/L318F/N151K/N90K/P208A/P217A/Q86G/Q94H/R138H/R169H/T345S); assay: T2A2 cell-binding assay; conditions: T2A2 cells; FI = (MFI of peptide - MFI of control without peptide)/MFI of control without peptide; anti-HLA-A2 BB7.2, flow cytometry; FI > 1 = high binding affinity
T1 construct: T2A2 cells (TAP-deficient HLA-A2 molecules overexpressing, cultured in IMDM medium); host or cells: T2A2 cells
Description: The binding affinity of neoepitope to the MHC molecule and the stable neoepitope/MHC complex are critical for inducing T cell immune response, so we first performed a T2A2 cell-binding assay and stabilization assay. The T2A2 cell-binding assay was measured as in our previous study. The binding affinity was computed as follows: fluorescence index (FI) = (mean fluorescence intensity (MFI) of peptide group-MFI of the dissolved buffer without peptide group)/MFI of the dissolved buffer without peptide group.

[2] = tested on: KYSE140-MUT cells; assay: Intracellular staining (granzyme B) of CTLs from immunized Tg mice; assay type: in vivo, HLA-A2.1/K^b Tg mice; conditions: 100 μg/mouse s.c. with CpG ODN 1826 once a week for three weeks; spleen lymphocytes re-stimulated with MUT peptide; KYSE140-MUT target cells; n = 5 per group
Description: To investigate whether neoepitopes could induce a peptide-specific T cell response in vivo, HLA-A2.1/K^b Tg mice were used and immunized according to the procedure de-scribed previously. In brief, mutant peptides or WH-mutant peptides (100 μg per mouse) with CpG-ODN 1826 (30 μg per mouse) were injected s.c. in the back of HLA-A2.1/K^b Tg mice (five mice per group, randomly grouped) once a week for three weeks. The normal saline (NS) group was immunized s.c. only with CpG ODN 1826 (30 μg/mouse) once a week for three weeks. Five days after the last injection, spleen lymphocytes were isolated and cultured at the concentration of 5 × 10^6 cells/mL in RPMI 1640 medium. These cells were induced by the same mutant peptides (10 μg/mL) that were used for in vivo stimulation and mIL-2 (30 U/mL) for a week. Intracellular cytokine staining assay (ICS) and cytotoxic assay (E: T ratios = 20:1, 40:1, 80:1) were performed after a week induced in vitro [22].
To test the MUT peptides stimulation of CTL response in vivo, peptide-specific T cells induced from Tg mice were co-cultured with tumor cell lines transfected with WT or MUT minigenes, as described in the in vitro assay. These T cells were marked by surface marker antibodies anti-mouse CD3 and CD8α before fixation and permeabilization. Intracellular cytokines were marked by anti-mouse IFN-γ or anti-mouse granzyme B, respectively, and analyzed by flow cytometry (BD FACSCelesta™, USA).

[3] = tested on: peptide-pulsed T2A2 cells; assay: IFN-γ intracellular staining of peptide-induced T cells from donor PBMCs; assay type: cell-based, human; conditions: PBMCs of HLA-A2+ donors B–F, DCs pulsed with 10 μg/mL peptide, three rounds
Description: (§1) DCs involve and play an important role in initiating CD8^+ T cell response. Consequently, ten HLA-A2^+ healthy donors’ PBMCs were isolated, autologous DCs were generated, and CTLs were induced according to the procedure described previously. In brief, PBMCs were seeded at a density of 5 × 10^6 cells/well in a 6-well plate, and after 3 h, the non-adherent cells were removed and cryopreserved for future incubation with mature autologous DCs. Differentiation of the adherent cells into dendritic cells was induced by GM-CSF (100 ng/mL, #300-03, PeproTech, Rocky Hill, NJ, USA) and IL-4 (100 ng/mL; #200-04, PeproTech, USA), with replenishment every 2 days. On day 5, maturation of DCs was induced using 100 ng/mL LPS (#L4516, Sigma-Aldrich, St. Louis, MO, USA), and maturation was checked on day 8 by flow cytometry (BD FACSCelesta™) using markers for anti-human HLA-DR, anti-human CD80, and anti-human CD86. Then, mature DCs (1 × 10^5) were pulsed with each 10 μg /mL individual peptide or no peptides (control) for 2 h at 37 °C. Next, peptide-pulsed DCs were used to prime the previously cryopreserved autologous peripheral blood lymphocytes (PBLs) at a DC/PBL ratio of 1:10 using complete RPMI-1640 media supplemented with 100 IU/mL rhIL-2 (#200-02, PeproTech, USA) and 10 ng/mL rhIL-7 (#200-07, PeproTech, USA). Half of the feeding medium was replenished every 2 days. After 7 days, PBLs were restimulated with freshly pulsed autologous DCs every 7 days.
When target cells were peptide-pulsed T2A2 cells (MUT peptide or its corresponding WT peptide), peptide-specific T cells (from HLA-A2^+ healthy donors B–F) stimulated by MUT peptides were co-cultured with these cells in the presence of BFA for 5 h. Then T cells were marked by anti-human CD3 and anti-human CD8α monoclonal antibody. Thirty minutes later, cells were fixed by fixation buffer (Thermo Scientific, Waltham, MA, USA) for thirty minutes and washed by permeabilization buffer (Thermo Scientific, USA). Permeabilized T cells were marked by anti-human IFN-γ monoclonal antibody.

[4] = tested on: peptide-pulsed T2A2 cells; assay: Cytotoxicity assay of peptide-induced T cells from donor PBMCs; assay type: cell-based, human; conditions: donors B–F; E/T 12.5:1, 25:1, 50:1; T2A2 loaded with 50 μg/mL peptide
Description: as §1
The cytotoxicity of peptide-specific T cells stimulated by mutant peptides was tested by using Cell Trace Far Red (Thermo Scientific, USA). Transfected cells were suspended in PBS (1 × 10^6 cells/mL) and labelled with Cell Trace Far Red as follows: Control target cells and test target cells were marked by 50 μM and 1 mM Cell Trace Far Red, respectively, at 37 °C for 20 min, protected from light. After incubation, target cells were washed with complete media at 37 °C for 5 min. […] Subsequently, test target cells were mixed with control target cells in a tube, washed once, and analyzed by flow cytometry. Specific lysis (%) = (numbers of control target cells—numbers of test target cells)/numbers of control target cells × 100% [28, 29], where, for tumor cells, the control target cells refer to KYSE140-WT cells marked with 50 μM Cell Trace Far Red, and the test target cell refers to KYSE140-WT or KYSE140-MUT cells marked with 1 mM Cell Trace Far Red, respectively (peptide-specific T cells generated from donors G–K’s PBMCs in vitro or generated from spleen lymphocytes of HLA-A2.1/K^b Tg mice in vivo). Additionally, for T2A2 target cells, T2A2 cells unpulsed and marked with 50 μM Cell Trace Far Red were used as the control target cells, while T2A2 cells loaded with MUT peptides or the corresponding WT peptides (50 μg/mL) or T2A2 cells only were marked with 1 mM Cell Trace Far Red and were used as test target cells (peptide-specific T cells stimulated from donors B–F’s PBMCs).

FI (fluorescence index) [1] | Sequence | granzyme B expression of CTLs [2] | IFN-γ release of MUT peptide-induced T cells, MUT versus WT peptide-loaded T2A2 cells [3] | lysis cytotoxicity of MUT peptide-induced T cells on T2A2 cells [4]
1.67 | ILWRQDINL [NFE2L2-D13N] | 2.3% | immunogenic | could efficiently lyse corresponding MUT peptide-pulsing T2A2 cells
1.81 | LLGPNSFEV [TP53-R267P] | 0.7% | immunogenic | could efficiently lyse corresponding MUT peptide-pulsing T2A2 cells
1.85 | QVTDFLAPL [PCLO-E4090Q] | 1.5% | immunogenic | could efficiently lyse corresponding MUT peptide-pulsing T2A2 cells
